# From ChEMBL document CHEMBL3885881, “DrugMatrix”
# Organism: Rattus norvegicus
# Experiment: DrugMatrix - Regimen: Daily Repeat
# Type: toxicity, organism-based, Sprague-Dawley
# Set-up: regimen Daily Repeat, gender Male, age 6-8 weeks
# Settings: in vivo, po, route oral GAVAGE, vehicle .5 % CMC; for BASOPHIL / EOSINOPHIL / ERYTHROCYTE COUNT / HEMATOCRIT / HEMOGLOBIN / LEUKOCYTE COUNT / LYMPHOCYTE / MEAN CORPUSCULAR HEMOGLOBIN / MEAN CORPUSCULAR HEMOGLOBIN CONCENTRATION / MEAN CORPUSCULAR VOLUME / MONOCYTE / NEUTROPHIL / PLATELET COUNT / ABSOLUTE BASOPHIL / ABSOLUTE EOSINOPHIL / ABSOLUTE LYMPHOCYTE / ABSOLUTE MONOCYTE / ABSOLUTE SEGMENTED NEUTROPHIL / NUCLEATED RED BLOOD CELLS: tissue Blood
# [1] = 0 mg/kg, 72 h, dose level Control, time 3 day
# [2] = 0 mg/kg, 72 h, tissue Plasma, dose level Control, time 3 day
# [3] = 0 mg/kg, 120 h, dose level Control, time 5 day
# [4] = 0 mg/kg, 120 h, tissue Plasma, dose level Control, time 5 day
# [5] = 7 mg/kg, 72 h, dose level Low, time 3 day
# [6] = 7 mg/kg, 72 h, tissue Plasma, dose level Low, time 3 day
# [7] = 7 mg/kg, 120 h, dose level Low, time 5 day
# [8] = 7 mg/kg, 120 h, tissue Plasma, dose level Low, time 5 day
smiles,measurement,setting,value
NC1=NC(=O)C(c2ccccc2)O1 (stereo unspecified) [PEMOLINE],BASOPHIL,[1],0%
same,EOSINOPHIL,[1],0.33%
same,ERYTHROCYTE COUNT,[1],6.03 x10E6/uL
same,HEMATOCRIT,[1],38.8%
same,HEMOGLOBIN,[1],14.26 G/DL
same,LEUKOCYTE COUNT,[1],10.64 x10E3/uL
same,LYMPHOCYTE,[1],83.33%
same,MEAN CORPUSCULAR HEMOGLOBIN,[1],23.64 pg
same,MEAN CORPUSCULAR HEMOGLOBIN CONCENTRATION,[1],36.74 G/DL
same,MEAN CORPUSCULAR VOLUME,[1],64.32 fL
same,MONOCYTE,[1],3.33%
same,NEUTROPHIL,[1],13%
same,PLATELET COUNT,[1],1264.4 x10E3/uL
same,ALANINE AMINOTRANSFERASE,[2],38.83 u/L
same,ALBUMIN,[2],3.55 G/DL
same,ALKALINE PHOSPHATASE,[2],368.33 u/L
same,ASPARTATE AMINOTRANSFERASE,[2],66.17 u/L
same,BLOOD UREA NITROGEN,[2],15.67 mg/dL
same,CHLORIDE,[2],104.33 MEQ/L
same,CHOLESTEROL,[2],76.5 mg/dL
same,CREATINE PHOSPHOKINASE,[2],166.83 u/L
same,CREATININE,[2],0.52 mg/dL
same,GLUCOSE,[2],173.17 mg/dL
same,PHOSPHORUS,[2],11.68 mg/dL
same,POTASSIUM,[2],6.43 MEQ/L
same,SODIUM,[2],149.5 MEQ/L
same,TOTAL PROTEIN,[2],5.93 G/DL
same,BASOPHIL,[3],0%
same,EOSINOPHIL,[3],0%
same,ERYTHROCYTE COUNT,[3],5.88 x10E6/uL
same,HEMATOCRIT,[3],37.87%
same,HEMOGLOBIN,[3],14.48 G/DL
same,LEUKOCYTE COUNT,[3],12.43 x10E3/uL
same,LYMPHOCYTE,[3],84.17%
same,MEAN CORPUSCULAR HEMOGLOBIN,[3],24.65 pg
same,MEAN CORPUSCULAR HEMOGLOBIN CONCENTRATION,[3],38.25 G/DL
same,MEAN CORPUSCULAR VOLUME,[3],64.47 fL
same,MONOCYTE,[3],4.33%
same,NEUTROPHIL,[3],11.5%
same,PLATELET COUNT,[3],1182.33 x10E3/uL
same,ALANINE AMINOTRANSFERASE,[4],38.67 u/L
same,ALBUMIN,[4],3.55 G/DL
same,ALKALINE PHOSPHATASE,[4],342.5 u/L
same,ASPARTATE AMINOTRANSFERASE,[4],63.33 u/L
same,BLOOD UREA NITROGEN,[4],15.5 mg/dL
same,CHLORIDE,[4],104 MEQ/L
same,CHOLESTEROL,[4],75.5 mg/dL
same,CREATINE PHOSPHOKINASE,[4],142.5 u/L
same,CREATININE,[4],0.62 mg/dL
same,GLUCOSE,[4],165.17 mg/dL
same,PHOSPHORUS,[4],10.87 mg/dL
same,POTASSIUM,[4],6.85 MEQ/L
same,SODIUM,[4],150.17 MEQ/L
same,TOTAL PROTEIN,[4],5.93 G/DL
same,ABSOLUTE BASOPHIL,[5],0 CELLS/uL
same,ABSOLUTE EOSINOPHIL,[5],0 CELLS/uL
same,ABSOLUTE LYMPHOCYTE,[5],8380 CELLS/uL
same,ABSOLUTE MONOCYTE,[5],87.67 CELLS/uL
same,ABSOLUTE SEGMENTED NEUTROPHIL,[5],732.33 CELLS/uL
same,BASOPHIL,[5],0%
same,EOSINOPHIL,[5],0%
same,ERYTHROCYTE COUNT,[5],5.42 x10E6/uL
same,HEMATOCRIT,[5],34%
same,HEMOGLOBIN,[5],13.77 G/DL
same,LEUKOCYTE COUNT,[5],9.2 x10E3/uL
same,LYMPHOCYTE,[5],91.33%
same,MEAN CORPUSCULAR HEMOGLOBIN,[5],25.43 pg
same,MEAN CORPUSCULAR HEMOGLOBIN CONCENTRATION,[5],40.5 G/DL
same,MEAN CORPUSCULAR VOLUME,[5],62.87 fL
same,MONOCYTE,[5],1%
same,NEUTROPHIL,[5],7.67%
same,NUCLEATED RED BLOOD CELLS,[5],0 /100WBC
same,PLATELET COUNT,[5],1245 x10E3/uL
same,ALANINE AMINOTRANSFERASE,[6],52 u/L
same,ALBUMIN,[6],4.3 G/DL
same,ALKALINE PHOSPHATASE,[6],415.33 u/L
same,ASPARTATE AMINOTRANSFERASE,[6],90 u/L
same,BLOOD UREA NITROGEN,[6],14 mg/dL
same,CARBON DIOXIDE,[6],32 mmol/L
same,CHLORIDE,[6],99.33 MEQ/L
same,CHOLESTEROL,[6],78.67 mg/dL
same,CREATINE PHOSPHOKINASE,[6],330.33 u/L
same,CREATININE,[6],0.25 mg/dL
same,GLUCOSE,[6],141.33 mg/dL
same,LACTATE DEHYDROGENASE,[6],168.67 u/L
same,LIPASE,[6],10.33 u/L
same,PHOSPHORUS,[6],11.6 mg/dL
same,POTASSIUM,[6],6.56 MEQ/L
same,SODIUM,[6],145.47 MEQ/L
same,TOTAL BILIRUBIN,[6],0.2 mg/dL
same,TOTAL PROTEIN,[6],6.2 G/DL
same,URIC ACID,[6],1.03 mg/dL
same,ABSOLUTE BASOPHIL,[7],0 CELLS/uL
same,ABSOLUTE EOSINOPHIL,[7],0 CELLS/uL
same,ABSOLUTE LYMPHOCYTE,[7],13324.33 CELLS/uL
same,ABSOLUTE MONOCYTE,[7],202.67 CELLS/uL
same,ABSOLUTE SEGMENTED NEUTROPHIL,[7],1839.67 CELLS/uL
same,BASOPHIL,[7],0%
same,EOSINOPHIL,[7],0%
same,ERYTHROCYTE COUNT,[7],5.15 x10E6/uL
same,HEMATOCRIT,[7],31.77%
same,HEMOGLOBIN,[7],12.83 G/DL
same,LEUKOCYTE COUNT,[7],15.37 x10E3/uL
same,LYMPHOCYTE,[7],86.67%
same,MEAN CORPUSCULAR HEMOGLOBIN,[7],24.93 pg
same,MEAN CORPUSCULAR HEMOGLOBIN CONCENTRATION,[7],40.47 G/DL
same,MEAN CORPUSCULAR VOLUME,[7],61.63 fL
same,MONOCYTE,[7],1.33%
same,NEUTROPHIL,[7],12%
same,NUCLEATED RED BLOOD CELLS,[7],0 /100WBC
same,PLATELET COUNT,[7],1293.33 x10E3/uL
same,ALANINE AMINOTRANSFERASE,[8],55.67 u/L
same,ALBUMIN,[8],4.1 G/DL
same,ALKALINE PHOSPHATASE,[8],349 u/L
same,ASPARTATE AMINOTRANSFERASE,[8],73.67 u/L
same,BLOOD UREA NITROGEN,[8],18.33 mg/dL
